The target in assay [1] is T1, Estrogen receptor (Homo sapiens) (UniProt P03372).
T1 sequence (whole entry): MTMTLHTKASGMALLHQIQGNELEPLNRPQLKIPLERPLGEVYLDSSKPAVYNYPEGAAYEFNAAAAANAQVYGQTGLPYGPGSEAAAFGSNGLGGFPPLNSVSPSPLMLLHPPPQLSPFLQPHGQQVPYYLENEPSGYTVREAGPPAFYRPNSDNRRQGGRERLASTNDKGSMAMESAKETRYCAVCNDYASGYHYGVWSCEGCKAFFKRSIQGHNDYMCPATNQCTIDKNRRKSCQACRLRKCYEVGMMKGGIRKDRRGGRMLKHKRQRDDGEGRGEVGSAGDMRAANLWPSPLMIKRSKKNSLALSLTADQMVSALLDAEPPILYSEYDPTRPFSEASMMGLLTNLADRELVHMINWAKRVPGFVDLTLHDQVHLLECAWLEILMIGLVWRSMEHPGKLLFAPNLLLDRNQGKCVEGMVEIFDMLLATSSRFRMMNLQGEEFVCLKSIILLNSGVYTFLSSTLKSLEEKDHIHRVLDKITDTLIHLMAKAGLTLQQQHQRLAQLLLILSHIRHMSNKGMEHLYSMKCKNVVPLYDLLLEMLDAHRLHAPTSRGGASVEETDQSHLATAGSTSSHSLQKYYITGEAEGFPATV
Put plainly: Induction of ERalpha nuclear translocation in human MCF7 cells assessed as increase in RasGRP1 mRNA expression at 0.1 to 5 nM after 24 hrs by RT-qPCR analysis. Type of assay: cell-based. The conditions noted are these: dose 0.1-5 nM. For orientation: Real-time PCR tracks product formation cycle by cycle.

The target of assay [2] is T1, Estrogen receptor (Homo sapiens). In words: Induction of ERalpha nuclear translocation in human MCF7 cells assessed as increase in TFF1 mRNA expression at 0.1 to 5 nM after 24 hrs by RT-qPCR analysis. It counts as cell-based. As to conditions: dose 0.1-5 nM.
Assay [3] shares this target. Put plainly: Induction of ERalpha nuclear translocation in human MCF7 cells assessed as increase in RGNEF mRNA expression at 0.1 to 5 nM after 24 hrs by RT-qPCR analysis. The conditions noted are these: dose 0.1-5 nM. Type of assay: cell-based.
Assay [4] concerns the target T2, Estrogen receptor (Homo sapiens, UniProt P03372).
T2 sequence (P03372 whole entry): T1 sequence (whole entry)
In words: Binding affinity of ERalpha LBD (unknown origin) incubated for 2 hrs by LanthaScreen TR-FRET assay.

Assay [5] relates to Calf thymus DNA. In words: Displacement of ethidium bromide from calf thymus DNA assessed as relative binding by measuring molar equivalents by spectrofluorometric assay. Type of assay: nucleic-acid assay. As to conditions: Bos taurus.
Assay [6] deals with T1, Estrogen receptor (Homo sapiens). Put plainly: Induction of ERalpha nuclear translocation in human MCF7 cells assessed as increase in IGFBP4 mRNA expression at 0.1 to 5 nM after 24 hrs by RT-qPCR analysis. Type of assay: cell-based. As to conditions: dose 0.1-5 nM.
Assay [7] has the same target. Put plainly: Induction of ERalpha nuclear translocation in human MCF7 cells assessed as increase in LRP2 mRNA expression at 0.1 to 5 nM after 24 hrs by RT-qPCR analysis. Type of assay: cell-based. As to conditions: dose 0.1-5 nM.
Assay [8] shares this target. In words: Induction of ERalpha nuclear translocation in human MCF7 cells assessed as increase in SLFN5 mRNA expression at 0.1 to 5 nM after 24 hrs by RT-qPCR analysis. It counts as cell-based. The conditions noted are these: dose 0.1-5 nM.
The target is the same in assay [9]. In words: Induction of ERalpha nuclear translocation in human MCF7 cells assessed as increase in AGR2 mRNA expression at 0.1 to 5 nM after 24 hrs by RT-qPCR analysis. It counts as cell-based. The conditions noted are these: dose 0.1-5 nM.
The subject of assay [10] is Calf thymus DNA. In words: Binding affinity to calf thymus DNA assessed as 7-MeG adduct formation at 100 uM after 24 hrs by RP-HPLC analysis. It counts as nucleic-acid assay. As to conditions: Bos taurus.
Assay [11] deals with Calf thymus DNA. Put plainly: Binding affinity to calf thymus DNA assessed as 7-MeG adduct formation at 100 uM after 24 hrs in presence of netropsin by RP-HPLC analysis. The conditions noted are these: Bos taurus. Type of assay: nucleic-acid assay.
Assay [12] deals with Calf thymus DNA. Put plainly: Binding affinity to calf thymus DNA assessed as 3-MeA adduct formation at 50 uM after 24 hrs by RP-HPLC analysis relative to control. Type of assay: nucleic-acid assay. The conditions noted are these: Bos taurus.
The subject of assay [13] is Calf thymus DNA. Put plainly: Binding affinity to calf thymus DNA assessed as 3-MeA adduct formation at 25 uM after 24 hrs by RP-HPLC analysis. Type of assay: nucleic-acid assay. As to conditions: Bos taurus.
The subject of assay [14] is Calf thymus DNA. In words: Binding affinity to calf thymus DNA assessed as 3-MeA adduct formation at 100 uM for 24 hrs in presence of netropsin by RP-HPLC analysis. It counts as nucleic-acid assay. The conditions noted are these: Bos taurus.
Assay [15] concerns Calf thymus DNA. In words: Binding affinity to calf thymus DNA assessed as 3-MeA adduct formation at 50 uM after 24 hrs by RP-HPLC analysis. It counts as nucleic-acid assay. As to conditions: Bos taurus.
The subject of assay [16] is MCF7. In words: Cytotoxicity against human MCF7 cells measured after 16 hrs by MTT assay. It counts as functional, cell-based. As to conditions: MCF7, 16 h. For orientation: Formazan colour is commonly taken as a measure of viable cells.
The test system of assay [17] is Calf thymus DNA. Put plainly: Binding affinity to calf thymus DNA assessed as 3-MeA adduct formation at 100 uM after 24 hrs in presence of netropsin by RP-HPLC analysis relative to control. Type of assay: nucleic-acid assay. The conditions noted are these: Bos taurus.
In assay [18] the test system is Calf thymus DNA. Put plainly: Binding affinity to calf thymus DNA assessed as 7-MeG adduct formation at 25 uM after 24 hrs by RP-HPLC analysis. The conditions noted are these: Bos taurus. It counts as nucleic-acid assay.
Assay [19] deals with Calf thymus DNA. In words: Binding affinity to calf thymus DNA assessed as 3-MeA adduct formation at 100 uM after 24 hrs by RP-HPLC analysis relative to control. It counts as nucleic-acid assay. The conditions noted are these: Bos taurus.
Assay [20] relates to Calf thymus DNA. In words: Binding affinity to calf thymus DNA assessed as 3-MeA adduct formation at 25 uM after 24 hrs by RP-HPLC analysis relative to control. Type of assay: nucleic-acid assay. As to conditions: Bos taurus.
In assay [21] the target is T1, Estrogen receptor (Homo sapiens). In words: Induction of ERalpha nuclear translocation in human MCF7 cells at 15 nM after 5 hrs by immunofluorescence assay. It counts as cell-based.
Assay [22] has as its system Calf thymus DNA. Put plainly: Binding affinity to calf thymus DNA assessed as 7-MeG adduct formation at 50 uM after 24 hrs by RP-HPLC analysis. It counts as nucleic-acid assay. As to conditions: Bos taurus.
Assay [23] has as its system Calf thymus DNA. In words: Binding affinity to calf thymus DNA assessed as 3-MeA adduct formation at 100 uM after 24 hrs by RP-HPLC analysis. The conditions noted are these: Bos taurus. Type of assay: nucleic-acid assay.
The test system of assay [24] is MCF7. Put plainly: Cytotoxicity against ER positive human MCF7 cells at 100 uM incubated for 24 hrs in presence of estradiol by MTT assay. Type of assay: functional, cell-based.
Assay [25] has as its system MDA-MB-231. Put plainly: Cytotoxicity against ER negative human MDA-MB-231 cells incubated for 24 hrs in presence of estradiol by MTT assay. The conditions noted are these: MDA-MB-231, 24 h. Type of assay: functional, cell-based.
Assay [26] has as its system MCF7. Put plainly: Cytotoxicity against ER positive human MCF7 cells incubated for 24 hrs in presence of estradiol by MTT assay. As to conditions: MCF7, 24 h. It counts as functional, cell-based.
Assay [27] relates to Calf thymus DNA. Put plainly: Binding affinity to calf thymus DNA assessed as 3-MeA adduct formation at 5000 uM after 24 hrs by RP-HPLC analysis. As to conditions: Bos taurus. Type of assay: nucleic-acid assay.
Assay [28] has as its system Calf thymus DNA. In words: Binding affinity to calf thymus DNA assessed as 3-MeA adduct formation at 5000 uM after 24 hrs in presence of netropsin by RP-HPLC analysis relative to control. The conditions noted are these: Bos taurus. It counts as nucleic-acid assay.
Assay [29] deals with Calf thymus DNA. Put plainly: Binding affinity to calf thymus DNA assessed as 3-MeA adduct formation at 5000 uM after 24 hrs by RP-HPLC analysis relative to control. Type of assay: nucleic-acid assay. As to conditions: Bos taurus.
In assay [30] the test system is Calf thymus DNA. In words: Binding affinity to calf thymus DNA assessed as 3-MeA adduct formation at 5000 uM after 24 hrs in presence of netropsin by RP-HPLC analysis. Type of assay: nucleic-acid assay. As to conditions: Bos taurus.

From ChEMBL document CHEMBL5030533, “Mechanistic Investigation of Site-specific DNA Methylating Agents Targeting Breast Cancer Cells” (J Med Chem, 2021) come the findings set out here.

Calls of active or inactive are those of the source. The calls are words filed in the database; no cut-off is given here.

On to `Cn1cc(NC(=O)c2cc(NC(=O)CCS(C)(=O)=O)cn2C)cc1C(=O)NCCC(=O)NCCCCCC[C@@H]1Cc2cc(O)ccc2[C@H]2CC[C@]3(C)[C@@H](O)CC[C@H]3[C@H]12`, for which the outcome in assay [1], in assay [2], in assay [3], in [6], in assay [8] and in assay [9] was Active. For the same molecule, the IC50 (as a rule, the midpoint of a concentration-inhibition curve) in assay [4] amounted to 0.00148 µM. Further, in [5], the Activity came out at 2.54 Mequiv. The result in [7] was inactive.

`COS(=O)(=O)CCC(=O)Nc1cc(C(=O)Nc2cc(C(=O)NCC(=O)NCCCCCC[C@@H]3Cc4cc(O)ccc4[C@H]4CC[C@]5(C)[C@@H](O)CC[C@H]5[C@H]34)n(C)c2)n(C)c1`: the Activity was 404 µmol in assay [10]; 482 µmol in [11]; 86% in assay [12]; 1620 µmol in assay [13]; 180 µmol in assay [14]; 1760 µmol in [15]. Moreover, the Activity in assay [17] was 91%; in assay [18], 194 µmol; in assay [19] it was 83%; in assay [20], 89%; in assay [22], 404 µmol; in assay [23], 1920 µmol. In addition, a half-maximal response in [16] (EC50) required 142 µM. The result in assay [21] was Active.

`COS(=O)(=O)CCC(=O)Nc1cc(C(=O)Nc2cc(C(=O)NCCCC(=O)NCCCCCC[C@@H]3Cc4cc(O)ccc4[C@H]4CC[C@]5(C)[C@@H](O)CC[C@H]5[C@H]34)n(C)c2)n(C)c1`: the Activity in assay [10] is 318 µmol; in assay [11] it was 420 µmol; in assay [12], 82%; in assay [13], 699 µmol; in assay [14], 173 µmol; in assay [15], 922 µmol. For the same molecule, the Activity in assay [17] was determined as 86%; in assay [18] it was 147 µmol; in [19], 79%; in [20], 83%; in assay [22], 204 µmol; in assay [23] it was 1210 µmol. Further, in assay [16], it took 89.5 µM to reach a half-maximal effect (EC50).

Turning to `CCCNC(=O)c1cc(NC(=O)c2cc(NC(=O)CCS(=O)(=O)OC)cn2C)cn1C`, the Activity turned out to be 774 µmol in assay [10]; 714 µmol in assay [11]; 95% in assay [12]; 4600 µmol in assay [13]; 8230 µmol in assay [15]; 95% in assay [17]. The Activity in assay [18] was determined as 185 µmol; in [19], 95%; in [20] it was 96%; in [22], 399 µmol. Also, in assay [16], the EC50 (usually the concentration needed to bring the measured effect to its halfway point) is 85 µM. In assay [24], the outcome was Active.

On to `COS(=O)(=O)CCC(=O)Nc1cc(C(=O)Nc2cc(C(=O)NCCC(=O)NCCCCCC[C@@H]3Cc4cc(O)ccc4[C@H]4CC[C@]5(C)[C@@H](O)CC[C@H]5[C@H]34)n(C)c2)n(C)c1`, for which the Activity in assay [10] turned out to be 495 µmol; in assay [11], 409 µmol; in [12] it was 98%; in assay [13], 6520 µmol; in [14], 769 µmol; in assay [17] it was 95%. Also, the Activity in assay [18] was 93 µmol; in assay [19] it was 97%; in [20], 99%; in [22] it was 253 µmol. Moreover, the EC50 in assay [16] is 39.4 µM; in [25], 160 µM; in [26], 50.7 µM. Also, the result in assay [24] was inactive.

`Cn1cc(NC(=O)c2cc(NC(=O)CCS(C)(=O)=O)cn2C)cc1C(=O)NCCCC(=O)NCCCCCC[C@@H]1Cc2cc(O)ccc2[C@H]2CC[C@]3(C)[C@@H](O)CC[C@H]3[C@H]12`: the result in assay [1], in assay [2], in assay [3], in assay [6], in assay [7] and in [8] was Active. Also, the result in [9] was Active. Further, it took 146 µM to reach a half-maximal effect in assay [16] (EC50). In addition, the Activity in assay [5] was 4.43 Mequiv.

For `COS(C)(=O)=O`, the Activity in assay [27] was 1800 µmol; in [28], 31%; in [29], 9%; in assay [30], 1240 µmol.

As to `Cn1cc(NC(=O)c2cc(NC(=O)CCS(C)(=O)=O)cn2C)cc1C(=O)NCC(=O)NCCCCCC[C@@H]1Cc2cc(O)ccc2[C@H]2CC[C@]3(C)[C@@H](O)CC[C@H]3[C@H]12`, the outcome in assay [1], in [2], in assay [3], in [6], in [8] and in assay [9] was Active. Besides, the response in assay [16] was half-maximal at 122 µM (EC50). In addition, the IC50 in assay [4] amounted to 0.00099 µM. Moreover, the Activity in [5] stood at 4.35 Mequiv. For the same molecule, the outcome in [7] was inactive.
